Results published in ChEMBL document CHEMBL1201862, “PubChem BioAssay data set” (2004).
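Results reflect a 48-hour exposure of cells in 96-well plates to compound at five concentrations. At the GI50, growth is halved.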 Active and inactive are the calls of the source. No stated cut-off is given here; in the data, active = GI50 up to about 1.1 µM and inactive = higher.

Legend:
Assay in all cases: DTP human tumour cell line panel, 48 h
[1] = tested on: SN12C
[2] = tested on: SF-539
[3] = tested on: OVCAR-5
[4] = tested on: UO-31
[5] = tested on: UACC-257
[6] = tested on: NCI-H460
[7] = tested on: 786-0
[8] = tested on: NCI-H226
[9] = tested on: LOX IMVI
[10] = tested on: NCI-H23
[11] = tested on: SF-268
[12] = tested on: K562
[13] = tested on: HCT-15
[14] = tested on: HCT-116
[15] = tested on: OVCAR-3
[16] = tested on: SNB-75
[17] = tested on: SR
[18] = tested on: A498
[19] = tested on: OVCAR-4
[20] = tested on: HCC 2998
[21] = tested on: EKVX
[22] = tested on: MCF7
[23] = tested on: NCI-H522
[24] = tested on: MDA-N
[25] = tested on: MOLT-4
[26] = tested on: HT-29
[27] = tested on: CAKI-1
[28] = tested on: COLO 205
[29] = tested on: MDA-MB-435
[30] = tested on: T47D
[31] = tested on: SK-MEL-5
[32] = tested on: Malme-3M
[33] = tested on: SW-620
[34] = tested on: IGROV-1
[35] = tested on: ACHN
[36] = tested on: U-251
[37] = tested on: RXF 393
[38] = tested on: NCI/ADR-RES
[39] = tested on: TK-10
[40] = tested on: DU-145
[41] = tested on: A549
[42] = tested on: SK-MEL-28
[43] = tested on: HL-60
[44] = tested on: KM12
[45] = tested on: MDA-MB-231
[46] = tested on: M14
[47] = tested on: HOP-62
[48] = tested on: SNB-19
[49] = tested on: CCRF-CEM
[50] = tested on: SK-MEL-2
[51] = tested on: PC-3
[52] = tested on: UACC-62
[53] = tested on: OVCAR-8
[54] = tested on: SF-295
[55] = tested on: BT-549
[56] = tested on: RPMI-8226
[57] = tested on: HOP-92
[58] = tested on: Hs-578T
[59] = tested on: SK-OV-3

Measured: GI50

CC1(C)[C@@H]2C[C@H]1c1cnc(-c3ccccn3)cc1C2CCCCC[C@@H]1c2cc(-c3ccccn3)ncc2[C@@H]2C[C@H]1C2(C)C (stereo partly drawn)
inactive: [1] 1.53 µM | [3] > 20.3 µM | [6] 1.99 µM | [8] 1.23 µM | [10] 1.82 µM | [18] 3.5 µM | [20] 7.1 µM | [21] 2.56 µM | [23] 1.71 µM | [24] 1.36 µM | [29] 1.38 µM | [30] 1.69 µM | [31] 4.18 µM | [32] 3.19 µM | [34] 1.63 µM | [35] 1.82 µM | [38] 25.6 µM | [39] > 49.2 µM | [40] 1.41 µM | [42] 2.29 µM | [44] 1.48 µM | [45] 8.15 µM | [46] 1.61 µM | [47] 1.42 µM | [48] 1.78 µM | [50] 7.1 µM | [51] 1.32 µM | [53] 1.88 µM | [55] 14.1 µM | [56] 2.51 µM
active: [2] 0.199 µM | [4] 0.853 µM | [5] 0.655 µM | [7] 0.493 µM | [9] 0.625 µM | [11] 0.687 µM | [12] 0.473 µM | [14] 0.489 µM | [15] 0.404 µM | [16] 0.74 µM | [17] 0.653 µM | [19] 0.384 µM | [22] 0.809 µM | [25] 0.357 µM | [26] 0.759 µM | [27] 0.628 µM | [28] 0.578 µM | [33] 0.83 µM | [36] 0.897 µM | [37] 0.745 µM | [41] 0.869 µM | [43] 0.426 µM | [49] 0.502 µM | [52] 0.946 µM | [54] 0.871 µM
5.9 µM: [13]

C[C@]12CC[C@@H]3c4cc(I)c(O)cc4CC[C@H]3[C@@H]1CC[C@@H]2O
2.48 µM: [13]
inactive: [3] 12.7 µM | [4] 5.74 µM | [5] 8.61 µM | [57] 10.3 µM | [6] 3.64 µM | [7] 5.06 µM | [8] 15.5 µM | [9] 4.17 µM | [10] 9.89 µM | [11] 9.38 µM | [12] 3.52 µM | [15] 3.43 µM | [58] 2.32 µM | [16] 3.17 µM | [17] 3.1 µM | [18] 8.43 µM | [19] 16.5 µM | [20] 8.81 µM | [21] 2.65 µM | [22] 5.87 µM | [23] 3.72 µM | [24] 1.74 µM | [25] 5.42 µM | [26] 17.3 µM | [27] 8.63 µM | [28] 18.5 µM | [30] 8.55 µM | [31] 3.18 µM | [32] 9.89 µM | [33] 3.58 µM | [34] 5.93 µM | [35] 8.75 µM | [36] 4.48 µM | [37] 6.07 µM | [38] 6.55 µM | [39] 9.68 µM | [41] 6.32 µM | [42] 7.96 µM | [43] 5.65 µM | [44] 3.27 µM | [45] 5.25 µM | [46] 4.09 µM | [48] 7.33 µM | [49] 3.15 µM | [50] 3.02 µM | [51] 10.7 µM | [53] 6.52 µM | [59] 4.25 µM | [54] 3.48 µM | [55] 11.6 µM | [56] 7.74 µM
